Test results reported in the OPERA property sets (Mansouri et al. 2018).

**Q.** Which logP does the source give for `O=c1cc(-c2ccc(O)cc2)oc2ccccc12` here?
**A.** 3.2

**Q.** For `Cc1csc(N=C(N)N)n1`, which logP is on record?
**A.** 1.24

**Q.** With `O=CC=Cc1ccco1` as the molecule, how does the logP read?
**A.** 1.15

**Q.** For `CCOC(=O)C(=Cc1ccc(OC)c(OC)c1)C(=O)OCC`, which logP is on record?
**A.** 2.89

**Q.** With `C=CCN(C)N=Nc1ccc(C(N)=O)cc1` as the molecule, how does the logP read?
**A.** 2.09

**Q.** Which logP does the source give for `CC1(C)N=C(N)N=C(N)N1c1cccc([N+](=O)[O-])c1` here?
**A.** 0.06

**Q.** For `CC(=O)OCC1CCC(NC(=O)N(CCCl)N=O)CC1` (stereo unspecified), which logP is on record?
**A.** 2.24

**Q.** With `CCN(CC)c1c(C)n(C)c(=O)n(-c2ccccc2)c1=O` as the molecule, how does the logP read?
**A.** 2.11

**Q.** With `CC(=O)Nc1ccc(CN(C)N=Nc2ccc(C(=O)O)cc2)cc1` as the molecule, how does the logP read?
**A.** 3.35

**Q.** Which logP does the source give for `Cc1c(N(C)C)c(=O)n(C)c(=O)n1C` here?
**A.** 0.99

**Q.** With `CCOc1cc(Cc2cnc(N)nc2N)cc(OCC)c1` as the molecule, how does the logP read?
**A.** 2.52

**Q.** With `Nc1nc(N)c2ncn(COCCO)c2n1` as the molecule, how does the logP read?
**A.** -1.06

**Q.** With `Cn1c(C=O)cnc1[N+](=O)[O-]` as the molecule, how does the logP read?
**A.** -0.1

**Q.** With `CC(O)COc1cccc2oc(C(=O)O)cc(=O)c12` (stereo unspecified) as the molecule, how does the logP read?
**A.** 1.32

**Q.** With `COc1cc(C=NO)ccc1OCCO` as the molecule, how does the logP read?
**A.** 0.82

**Q.** With `O=c1cn[nH]c(=O)[nH]1` as the molecule, how does the logP read?
**A.** -0.59

**Q.** With `CC(=O)OC1OC(C)C(OC(C)=O)C(OC(C)=O)C1NC(=O)N(CCCl)N=O` (stereo unspecified) as the molecule, how does the logP read?
**A.** 1.32

**Q.** With `Nc1ccc(S(=O)(=O)[O-])c2ccccc12.[Na+]` as the molecule, how does the logP read?
**A.** -2.34

**Q.** For `CC(=O)N(CC(=O)Nc1ccccc1)c1ccccc1`, which logP is on record?
**A.** 2.01

**Q.** For `CN(C(=O)CCO)c1ccc(S(=O)(=O)N(C)C)cc1`, which logP is on record?
**A.** -0.26

**Q.** For `CC(C)CC(CC(C)C)OC(=O)c1ccc(NC(=O)N(C)C)cc1Cl`, which logP is on record?
**A.** 5.15

**Q.** Which logP does the source give for `COc1cc(C(=O)C=CN2CC=CC2)cc(OC)c1OC` here?
**A.** 1.77

**Q.** Which logP does the source give for `O=C(O)c1ccccc1-c1ccccc1C(=O)O` here?
**A.** 2.07

**Q.** Which logP does the source give for `CNC(=S)NCC(F)(F)C(F)(F)C(F)(F)F` here?
**A.** 1.99

**Q.** With `CCCCCCCCCCCCCCCC(=O)OCC1OC(n2ccc(N)nc2=O)C(O)C1O` (stereo unspecified) as the molecule, how does the logP read?
**A.** 5.03

**Q.** With `O=C([O-])c1cc2ccccc2cc1O.[Na+]` as the molecule, how does the logP read?
**A.** 0.17

**Q.** With `COc1ccc(-c2nc3ccccc3[nH]2)c(OC)c1` as the molecule, how does the logP read?
**A.** 2.59

**Q.** Which logP does the source give for `CC(=O)OC[C@@H](OC(C)=O)[C@@H](OC(C)=O)[C@H](OC(C)=O)[C@H](C=O)OC(C)=O` here?
**A.** 0.63

**Q.** For `COC(=O)CCC(=O)N(C)c1ccc(S(=O)(=O)N(C)C)cc1`, which logP is on record?
**A.** 0.43

**Q.** Which logP does the source give for `CCOC(=O)CCC(=O)N(C)c1cccc(S(=O)(=O)N(C)C)c1` here?
**A.** 0.84

**Q.** Which logP does the source give for `CCCC1CC(C(=O)NC(C(C)Cl)C2OC(SC)C(O)C(O)C2O)N(CC)C1` (stereo unspecified) here?
**A.** 2.51

**Q.** With `O=C1/C(=C2\Nc3ccccc3C2=O)Nc2ccccc21` as the molecule, how does the logP read?
**A.** 3.72

**Q.** With `CCOCCOC(=O)C(C#N)=C(NCc1ccc(Cl)cc1)C(C)C` as the molecule, how does the logP read?
**A.** 4.05

**Q.** With `FC(F)(F)C(F)(F)C(F)(F)C(F)(F)C(F)(F)F` as the molecule, how does the logP read?
**A.** 4.4

**Q.** With `CC(C)(C)[N+]([O-])=NC#N` as the molecule, how does the logP read?
**A.** 1.4

**Q.** With `CCN(CC)Cc1ccc(C(=O)Nc2ccccc2)cc1` as the molecule, how does the logP read?
**A.** 3.49

**Q.** With `CCC[Si](C)(C)C` as the molecule, how does the logP read?
**A.** 3.84

**Q.** With `CCOC(CCC#N)OCC` as the molecule, how does the logP read?
**A.** 0.75

**Q.** For `CCOC(=O)CC(=O)C=Cc1ccc(C)cc1`, which logP is on record?
**A.** 2.63

**Q.** For `Cc1c(NCC(C)C)c(=O)n(-c2ccccc2)c(=O)n1C`, which logP is on record?
**A.** 1.48

**Q.** For `COc1cc(Cc2cnc(N)nc2N)cc(OC)c1N(C)C`, which logP is on record?
**A.** 1.51

**Q.** For `C[n+]1c2cc(N)ccc2cc2ccc(N)cc21.[Cl-]`, which logP is on record?
**A.** -1.78

**Q.** For `O=[N+]([O-])c1ccc(C(F)(F)F)cc1`, which logP is on record?
**A.** 2.55

**Q.** For `CCC(C)NC(=O)C(=Cc1ccccc1)Sc1ccccc1` (stereo unspecified), which logP is on record?
**A.** 4.36

**Q.** Which logP does the source give for `CCOCCOC(=O)C(C#N)=C(CC)Nc1ccc([N+](=O)[O-])cc1` here?
**A.** 2.6

**Q.** Which logP does the source give for `CS(=O)(=O)OCCCNCCCOS(C)(=O)=O` here?
**A.** -1.71

**Q.** Which logP does the source give for `CC(=O)NN=CCCc1ccccc1` here?
**A.** 1.8

**Q.** With `Cc1cccc(C)c1NC(=O)c1ccc(CN2CCCCC2)cc1` as the molecule, how does the logP read?
**A.** 3.86

**Q.** Which logP does the source give for `NC(=O)N=[N+]([O-])c1ccccc1` here?
**A.** 0.58

**Q.** For `Cc1c(N(C)C)c(=O)[nH]c(=O)n1-c1ccccc1`, which logP is on record?
**A.** 1.4

**Q.** Which logP does the source give for `CC(=O)OCCC(=O)N(C)c1ccc(S(=O)(=O)N(C)C)cc1` here?
**A.** 0.26

**Q.** For `CC(C)(C)C(=O)Nc1ccc(Cl)c(Cl)c1`, which logP is on record?
**A.** 3.88

**Q.** For `Cc1c(N2CCCC2)c(=O)n(-c2ccccc2)c(=O)n1C`, which logP is on record?
**A.** 2.26

**Q.** Which logP does the source give for `CCC1(C)CCC(=O)NC1=O` (stereo unspecified) here?
**A.** 0.23

**Q.** With `O=NN(CCCl)C(=O)NC1(C(=O)O)CCCC1` as the molecule, how does the logP read?
**A.** 2.01

**Q.** For `COc1ccc(-c2nc3ccncc3[nH]2)c(OC)c1`, which logP is on record?
**A.** 2.56

**Q.** Which logP does the source give for `COc1ccc(-c2nc3ccncc3[nH]2)c(OCCCCl)c1` here?
**A.** 3.53

**Q.** With `Cc1nnc(SCc2ccccc2)s1` as the molecule, how does the logP read?
**A.** 2.35

**Q.** Which logP does the source give for `ON=C(c1ccccc1)c1ccccc1` here?
**A.** 3.2

**Q.** Which logP does the source give for `COc1cc(C=O)ccc1OCCO` here?
**A.** 0.58

**Q.** For `CC1=Nc2ccc(I)cc2S(=O)(=O)N1`, which logP is on record?
**A.** 1.61

**Q.** With `CC(C)(NC(=O)N(CCCl)N=O)C(=O)O` as the molecule, how does the logP read?
**A.** 1.74

**Q.** With `CCCCCC1CNC(C(=O)NC(C(C)Cl)C2OC(SC)C(O)C(O)C2O)C1` (stereo unspecified) as the molecule, how does the logP read?
**A.** 2.74

**Q.** With `CC(=O)OC1COC(NC(=O)N(CCl)N=O)C(OC(C)=O)C1OC(C)=O` (stereo unspecified) as the molecule, how does the logP read?
**A.** 1.13

**Q.** With `S=C=Nc1cccc(Br)c1` as the molecule, how does the logP read?
**A.** 4.12

**Q.** With `CN(C)N=Nc1cn(C2OC(CO)C(O)C2O)c(=O)[nH]c1=O` (stereo unspecified) as the molecule, how does the logP read?
**A.** -1.82

**Q.** For `CC(C)OC(=O)c1ccccc1`, which logP is on record?
**A.** 3.18

**Q.** Which logP does the source give for `O=C1CN=C(c2ccc[nH]2)c2cc(Cl)ccc2N1` here?
**A.** 2.59

**Q.** For `CC(=O)Nc1ccc(C(F)(F)F)cc1`, which logP is on record?
**A.** 2.52

**Q.** For `COc1cc(C=O)ccc1OCCOC(=O)c1ccccc1Cl`, which logP is on record?
**A.** 3.21

**Q.** With `CC(=O)n1ccnc1` as the molecule, how does the logP read?
**A.** -0.34
